# US20080153792A1, “Drug Identification and Treatment Method” (priority 2006, published 2008)
# pIC50: −log10 of the molar value. Where two headings read alike, the source gives them in different places.
# Experiments:
# [1] = test system: CD1 male mice, carrageenan-λ induced pleurisy; assay: carrageenan-λ induced lung (pleural cavity) inflammation in mice; assay type: in vivo, mouse; conditions: for number of neutrophils relative to untreated carrageenan-λ control (100%): 4 h after carrageenan; for number of neutrophils in the pleura: 0.1 mg and 0.01 mg doses s.c.
# [2] = test system: BALB/c mice, OVA sensitized and challenged; assay: ovalbumin (OVA) sensitized mouse model of asthma; assay type: in vivo; conditions: for IL-13: s.c. once daily, dexamethasone 5 mg/kg, compound 1 mg/mouse
# Experimental: BALB/c mice were sensitized by intraperitoneal injection with OVA (in alum adjuvant) on days 1, and 12. Airways were challenged with OVA on days 28 and 30 by delivery of OVA to the lung, or with saline. […] The remaining animals were divided into 6 groups (6 mice per group). Groups of the mice were treated once daily by subcutaneous injection as follows. Group 1 vehicle control (0.1% carboxymethyl cellulose, 0.9% saline, 2% tween 80, 0.05% phenol). Group 2 dexamethazone (5 mg/kg). Group 3 3α,16α,17α-trihydroxyandrostane (1 mg/mouse). Three animals in groups 1-3 were sacrificed on day 35 at 1 hr after final treatment and the remaining 3 animals in groups 1-3 were sacrificed on day 38.
# [3] = metabolic stability in liver microsomes, species not stated; assay type: in vitro ADME; conditions: compared with androst-5-ene-3β,17β-diol reference compound
# Experimental: The protocol was performed as follows. […] (2) Set up samples as follows. […] (4) The internal standard/acetonitrile solution.
# [4] = test system: mice, LPS induced lung injury; assay: lung injury by sublethal LPS to trachea and lungs, BAL cell count; assay type: in vivo, mouse; conditions: oral gavage 24 h before and 1 h after 100 μg LPS; 48 hours
# Experimental: In another assay, the capacity of 16α-bromoepiandrosterone and 3β,16α-dihydroxy-17-oxoandrostane to protect against lung injury induced by exposure to a sublethal amount of LPS in mice was shown. In this assay, the compounds, sterile saline (negative control) or vehicle (vehicle control) were administered to groups of 5 mice by oral gavage at 24 hours before and 1 hour after administration of 100 μg of LPS to the trachea and lungs of animals under light anesthesia. At 48 hours the animals were sacrificed and samples were obtained from the lungs of the animals by bronchiolar alveolar lavage (BAL). The numbers of cells in the BAL fluid were counted, with high numbers of cells showing lung inflammation and damage. In this assay, cells that mediate inflammation and lung damage infiltrate into the lungs in response to the presence of the LPS. In the negative control and vehicle control groups, the BAL fluid contained about 6×10^7 cells/mL. […] Other compounds, e.g., 17α-ethynylandrost-5-ene-3β,7β,17β-triol or 17β-aminoandrost-5-ene-3β-ol, can be characterized in a similar manner.
# [5] = test system: mice given a lethal amount of LPS; assay: lethal shock protocol, lethal amount of bacterial LPS; assay type: in vivo, mouse; conditions: second assay; oral gavage 24 h before and 1 h after LPS
# Experimental: Treatment of lethal inflammation/shock. Two compounds, 16α-bromoepiandrosterone (3β-hydroxy-16α-bromoandrostane-17-one) and 3β,16α-dihydroxy-17-oxoandrostane, were used in a lethal shock protocol. In one protocol, 3 mg of 16α-bromoepiandrosterone was administered to one group of animals by oral gavage, while another group received 3 mg of 16α-bromoepiandrosterone by subcutaneous injection. A group of control animals received a placebo control. In this protocol, the 16α-bromoepiandrosterone was administered to mice at 24 hours before and at 1 hour after administration of a lethal amount of bacterial lipopolysaccharide (LPS). By the end of the observation period, 72 hours after LPS administration, none of the vehicle treated placebo control animals had survived, while 65% of animals that received 16α-bromoepiandrosterone by oral administration survived. 50% of the animals that received 16α-bromoepiandrosterone by subcutaneous injection survived. Animals that survived for 72 hours all recovered from the LPS exposure.
# In a second assay, 16α-bromoepiandrosterone or 3β,16α-dihydroxy-17-oxoandrostane was administered to mice by oral gavage at 24 hours before and 1 hour after administration of a lethal amount of LPS. A vehicle treated group of animals was used as the placebo control.
# [6] = test system: NF-κB; assay: NF-κB-bla THP-1 β-lactamase reporter assay; assay type: cell-based, human; conditions: Homo sapiens
# [7] = test system: γ-interferon production by human whole blood; assay: γ-interferon production in human whole blood exposed to LPS; assay type: cell-based; conditions: LPS 24 hours; 16α-bromoepiandrosterone at 100 ng/mL
# Experimental: Anti-inflammation activity in human cells in vitro. […] The amount of γ-interferon was measured in the growth medium when the cells had been incubated in the presence of LPS for 24 hours.
# [8] = test system: human peripheral blood mononuclear cells (PBMC); assay: human mixed lymphocyte reaction (MLR); assay type: cell-based; conditions: either 300 nM or 30 nM; 6 days; p>0.05
# Experimental: Human mixed lymphocyte reaction (MLR). The capacity of 3β,16α-dihydroxy-17-oxoandrostane, 3β,17β-dihydroxy-16-oxoandrostane, 17α-ethynylandrost-5-ene-3β,7β,17β-triol, and 17β-aminoandrost-5-ene-3β-ol to affect antigen specific stimulation in which human T lymphocytes respond to a specific foreign antigen (major histocompatibility complex).
# Blood samples were obtained from 3 (2 males, […]) fasting, healthy human volunteers of 23-31 years old. […] The subjects were bled between […] to limit possible fluctuations in the circulating levels of hormones or cytokines that could have influenced the in vitro responses of their lymphocytes. Peripheral blood mononuclear cells (PBMC) were isolated by centrifugation on Ficoll-Hypaque (density 1.077, Biochrom AG, Berlin, Germany) gradients and resuspended in culture medium (RPMI 1640 supplemented with 2 mM L-glutamine, penicillin (100 U/mL) and streptomycin ([…]) (Invitrogen s.rl., Milan, Italy). Autologous (responder) inactivated plasma was used at 10%. Five hundred thousand responder PBMC (PBMCr) and 500,000 allogeneic irradiated (30 Gy) stimulator PBMC (PBMCs) were mixed at a ratio of 1:1 in 200 μL medium and cultured for 6 days in flat bottom 96 well plates (Nunc, Roskilde, Denmark) at a concentration of 300 nM or 30 nM for each of the 4 compounds. The compounds were dissolved in ethanol and then diluted to the desired concentration with culture medium leading to a final solution containing 0.01% of ethanol. This vehicle was used as control. Controls also included PBMCr and PBMCs cultured separately. During the last 8 hours of the culture period the PBMC were pulsed with 1 μCi/well [^3H] thymidine (Amersham, Milan, Italy). The cells were then harvested and radioactivity incorporation measured with a beta cell counter. The mean cpm of quadruplicate wells was calculated. Proliferation of T cells was expressed as a stimulation index: SI=cpm (PMBCs xPBMCr)/cpm (PBMCr)+cpm (PBMCs). Statistical analysis was performed using the Student's t test. The cpm obtained from quadruplicate of each test compound were compared to proliferative responses obtained in control PBMCr and PBMCs cultured in the presence of the vehicle. Differences were considered significant at p<0.05.
# [9] = test system: bone marrow-derived mast cells (BMMC); assay: mast cell stimulus-coupled degranulation (glucuronidase release); assay type: cell-based, mouse
# Experimental: In another protocol, a population of mast cells was cultivated from murine bone marrow as follows. Briefly, bone marrows from Balb/C mice were flushed from the femur using PBS and a 27 g needle. The cells were cultured in a mixture of ⅔ RPMI-1640 with 19% FBS and cells that secreted IL-3. The bone marrow cells were allowed to differentiate for 18-25 days in the IL-3-containing mixture before being used for experiments. Bone marrow cells cultured in this manner have a phenotype similar to mucosal mast cells and are referred to as bone marrow-derived mast cells (BMMC).
# The homogeneity of the in vitro propagated mast cells was checked by conventional flow cytometry techniques and staining for cell-type specific markers. Between days 14 and 21 of propagation, mature mast cells were harvested and prepared for the test cultures. The objective was to assess of the effect of compounds such as dehydroepiandrosterone on mast cell stimulus-coupled degranulation. Prepared mast cells were dispensed into test culture wells at a density of 1×10^7 cells/mL. In control cultures, mast cells were induced to degranulate after cross linking of IgE receptors with IgE antigen-antibody complexes. […] There was no detectable degranulation of mast cells as measured by release of […] from cytosolic storage granules of the cells in the absence of the stimulus. […]
# [10] = 0.001 mg s.c. 24 h and 1 h before carrageenan-λ
# [11] = 0.01 mg s.c. 24 h and 1 h before carrageenan-λ
# [12] = 0.1 mg s.c. 24 h and 1 h before carrageenan-λ
compound,measurement,setting,value
"C[C@]12CC[C@H]3[C@@H](CCC4C[C@H](O)CC[C@@]43C)[C@@H]1C[C@@H](O)[C@H]2O (stereo partly drawn) [3α,16α,17α-trihydroxyandrostane]",number of neutrophils relative to untreated carrageenan-λ control (100%),[1]; [10],103%
same,number of neutrophils relative to untreated carrageenan-λ control (100%),[1]; [11],45%
same,number of neutrophils in the pleura,[1],significant reduction
same,number of neutrophils relative to untreated carrageenan-λ control (100%),[1]; [12],30%
same,IL-13,[2]; day 35,195 pg/mL
same,IL-5 in lung tissue,[2]; day 38,90 pg/mL
same,IL-13,[2]; day 38,210 pg/mL
same,metabolism by microsomes,[3],"metabolized by microsomes at a rate similar to the androst-5-ene-3β,17β-diol reference compound"
"C[C@]12CC[C@H](O)CC1CC[C@@H]1[C@@H]2CC[C@]2(C)C(=O)[C@H](O)C[C@@H]12 (stereo partly drawn) [3β,16α-dihydroxy-17-oxoandrostane]",neutrophils in the pleura / pleural exudate,[1]; 0.001 mg dose s.c.,inactive
same,number of neutrophils relative to untreated carrageenan-λ control (100%),[1]; [10],97%
same,number of neutrophils relative to untreated carrageenan-λ control (100%),[1]; [11],73%
same,number of neutrophils in the pleura,[1],significant reduction
same,volume of pleural exudate,[1]; 0.1 mg dose s.c.,significantly reduced
same,number of neutrophils relative to untreated carrageenan-λ control (100%),[1]; [12],73%
same,potency compared with polyclonal anti-TNF-α antibody control,[1]; s.c.,less potent
same,cell counts in the BAL fluid,[4],about 4.4×10^7 cells/mL
same,survival at 72 hours,[5],50%
same,pIC50,"[6]; THP-1, read-out: IC50 for inhibition of NF-κB activation, after LPS stimulation, 50% of the maximum inhibition the compound can induce, averages of 2-4 assays",< 5.00
same,production of γ-interferon,[7],Reduced production
same,immune suppression in the MLR,[8],not appreciably immune suppressive
same,metabolism by microsomes,[3],"metabolized by microsomes at a rate similar to the androst-5-ene-3β,17β-diol reference compound"
C[C@]12CC[C@H](O)CC1=CC[C@@H]1[C@@H]2CC[C@]2(C)C(=O)CC[C@@H]12 [dehydroepiandrosterone],pIC50,"[6]; THP-1, read-out: IC50, this protocol",< 5.00
same,inhibition at 100 µM,"[9]; Mus musculus, BMMC, 100 μM, 5 to 10 minutes before activation with anti-IgE antigen-antibody complexes",~70%
same,degranulation by compound alone,[9]; no stimulus,no measurable degranulation
